Where two headings read alike, the source gives them in different places.
Assays:
KPC-2 = KPC-2 (Klebsiella pneumoniae, UniProt Q9F663); experiment: Inhibition of nitrocefin cleavage by purified KPC-2; assay type: biochemical; conditions: nitrocefin reporter substrate; 10 min preincubation at room temperature; read-out: Ki (KPC-2, NCF)
Description: (§1) Ki values of inhibition of purified class A, C and D enzymes were determined spectrophotometrically using nitrocefin as reporter substrate. Purified enzymes were mixed with various concentrations of inhibitors in reaction buffer and incubated for 10 min at room temperature. Nitrocefin was added and substrate cleavage profiles were recorded at 490 nm every 10 sec for 10 min. These experiments confirmed that the described compounds are inhibitors with a broad-spectrum of activity towards various β-lactamases.

OXA-23 = OXA-23 (Acinetobacter baumannii, UniProt Q9L4P2); experiment: Inhibition of nitrocefin cleavage by purified OXA-23; assay type: biochemical; conditions: nitrocefin reporter substrate; 10 min preincubation at room temperature; read-out: Ki (OXA-23, NCF)
Description: as §1

NDM-1 = NDM-1 (Klebsiella pneumoniae, UniProt C7C422); experiment: Inhibition of imipenem cleavage by purified NDM-1; assay type: biochemical; conditions: imipenem reporter substrate; 37° C.; read-out: Ki (NDM-1, IMI)
Description: Purified enzymes were mixed with various concentrations of inhibitors in reaction buffer and incubated for 10 min at room temperature. Imipenem was added and substrate cleavage profiles were recorded at 294 nm every 30 seconds for 30 minutes at 37° C.

CTX-M-14 = CTX-M-14 (Escherichia coli, UniProt Q9L5C7); experiment: Inhibition of nitrocefin cleavage by purified CTX-M-14; assay type: biochemical; conditions: nitrocefin reporter substrate; 10 min preincubation at room temperature; read-out: Ki (CTX-M-14, NCF)
Description: as §1, with “min.” for “min. These experiments confirmed that the described compounds are inhibitors with a broad-spectrum of activity towards various β-lactamases.”

OXA-48 = OXA-48 (Klebsiella pneumoniae, UniProt Q6XEC0); experiment: Inhibition of nitrocefin cleavage by purified OXA-48; assay type: biochemical; conditions: nitrocefin reporter substrate; 10 min preincubation at room temperature; read-out: Ki (OXA-48, NCF)
Description: as §1

[1] = system: PAM1032/KPC-2 (overexpressed MexAB-OprM); experiment: Biapenem potentiation (MPC64) in PAM1032/KPC-2; assay type: cell-based, Pseudomonas aeruginosa; parameters: PAM1032/KPC-2 Biapenem MPC64: unit not given here; conditions: BLI potency to decrease biapenem MIC 64-fold, from 32 to 0.5 μg/ml; efflux proficient strain
Description: (§2) Efflux of BLIs from Pseudomonas aeruginosa by the MexAB-OprM efflux pump was also evaluated. The plasmid expressing the gene encoding KPC-2 was introduced into two strains of P. aeruginosa, PAM1032 and PAM1154 that overexpressed or lacked MexAB-OprM, respectively. Due to expression of KPC-2 both strains became resistant to biapenem. […] Potency of BLIs to potentiate biapenem in these strains was determined. […] The ratio of MPC64 values for each BLI in PAM1032/KPC-2 (efflux proficient) and PAM1154/KPC-2 (efflux deficient) was determined to generate the Efflux Index (EI) as shown in Table 8.

VIM-1 = VIM-1 (Pseudomonas aeruginosa, UniProt A0A0F7KYQ8); experiment: Inhibition of nitrocefin cleavage by purified VIM-1; assay type: biochemical; conditions: nitrocefin reporter substrate; 10 min preincubation at room temperature; read-out: Ki (VIM-1, NCF)
Pa-AmpC = Pa-AmpC (Pseudomonas aeruginosa, UniProt P24735); experiment: biochemical
Description: as §1, with “min.” for “min. These experiments confirmed that the described compounds are inhibitors with a broad-spectrum of activity towards various β-lactamases.”

P99 = P99 (Enterobacter cloacae, UniProt P05364); experiment: biochemical; conditions: nitrocefin reporter substrate; 10 min preincubation at room temperature; read-out: Ki (P99, NCF)
Description: as §1, with “min.” for “min. These experiments confirmed that the described compounds are inhibitors with a broad-spectrum of activity towards various β-lactamases.”

IMP-1 = IMP-1 (Serratia marcescens, UniProt P52699); experiment: Inhibition of imipenem cleavage by purified IMP-1; assay type: biochemical; conditions: imipenem reporter substrate; 37° C.; read-out: Ki (IMP-1, IMI)
Description: Ki values of inhibition of purified class B enzymes NDM-1 and IMP-1 were determined spectrophotometrically using imipenem as reporter substrate. Purified enzymes were mixed with various concentrations of inhibitors in reaction buffer and incubated for 10 min at room temperature. Imipenem was added and substrate cleavage profiles were recorded at 294 nm every 30 seconds for 30 minutes at 37° C. These experiments further confirmed that the described compounds have the ability to inhibit carbapenemase activity of metallo-beta-lactamases.

[2] = system: PAM1154/KPC-2 (lacked MexAB-OprM); experiment: Biapenem potentiation (MPC64) in PAM1154/KPC-2; assay type: cell-based, Pseudomonas aeruginosa; parameters: PAM1154/KPC-2 Biapenem MPC64: unit not given here; conditions: BLI potency to decrease biapenem MIC 64-fold, from 32 to 0.5 μg/ml; efflux deficient strain
Description: as §2

[3] = Stability of compound 13 prodrugs in human liver microsomes (HLM); assay type: in vitro ADME; conditions: 0.500 mg/mL human liver microsomes, no cofactors, prodrug 1.00 μM; for half-life at 1 μM: pH 7.4, read-out: Estimated half-life (minutes) (rounded to nearest integer value)
Description: In the meantime, a 20.0 mg/mL solution of human liver microsomes (XenoTech, LLC) was diluted to 1.00 mg/mL (2× final concentration). Esterase activity for each lot of microsomes used was established by assaying an unrelated ester prodrug as a control. Both the Eppendorfs for each timepoint and the diluted liver microsomes were then warmed to 37° C. in a water bath. No cofactors (e.g. NADPH) were added to ensure that only hydrolytic reactions as opposed to reactions mediated by other cofactor-dependent enzymes (e.g. CYP450 enzymes) would take place. To initiate the reaction, 50 μL of diluted human liver microsomes was added to tubes for all timepoints using a repeating-tip pipette, thereby bringing the final concentration of test compound to 1.00 μM and the final concentration of human liver microsomes to 0.500 mg/mL. At each timepoint, the reaction was halted and proteins precipitated through the addition of 200 μL of 10:45:45 water:methanol:acetonitrile v/v/v containing an unrelated ester prodrug at 250 ng/mL as an internal standard. […] Sample analysis for microsome stability experiments was conducted using a 20.0 μL injection on a LEAP PAL autosampler with Agilent 1100 binary pump HPLC coupled to an AB Sciex 3200 QTrap mass spectrometer. […] Detection was in positive mode; source parameters and parent-daughter ion selection criteria were chosen as needed for each compound to achieve an appropriate limit of detection and signal-to-noise ratio. The samples were analyzed together with appropriate blanks in order to ensure specificity. The rate of hydrolysis for each prodrug was determined by monitoring the concentration of test compound as follows. The peak area for the analyte was divided by the peak area for the internal standard to give an area ratio. The area ratio for each of the two replicates at each timepoint was divided by the area ratio for timepoint 0 to give the percent remaining at each timepoint. The natural logarithm of the percent remaining versus time for all replicates was plotted using Microsoft Excel and fitted to a linear trendline.

[4] = nitrocefin reporter substrate, 10 min preincubation at room temperature, read-out: Ki (Pa-AmpC, NCF)

Sequence of OXA-48 (Q6XEC0 23-265, looked up): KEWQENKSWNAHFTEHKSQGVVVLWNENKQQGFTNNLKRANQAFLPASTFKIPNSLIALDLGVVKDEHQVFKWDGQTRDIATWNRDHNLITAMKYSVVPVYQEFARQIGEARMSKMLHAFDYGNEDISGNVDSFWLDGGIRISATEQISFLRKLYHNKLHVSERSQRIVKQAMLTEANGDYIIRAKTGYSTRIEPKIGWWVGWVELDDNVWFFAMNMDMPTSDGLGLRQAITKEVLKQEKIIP
Sequence of CTX-M-14 (Q9L5C7 29-291, species assumed): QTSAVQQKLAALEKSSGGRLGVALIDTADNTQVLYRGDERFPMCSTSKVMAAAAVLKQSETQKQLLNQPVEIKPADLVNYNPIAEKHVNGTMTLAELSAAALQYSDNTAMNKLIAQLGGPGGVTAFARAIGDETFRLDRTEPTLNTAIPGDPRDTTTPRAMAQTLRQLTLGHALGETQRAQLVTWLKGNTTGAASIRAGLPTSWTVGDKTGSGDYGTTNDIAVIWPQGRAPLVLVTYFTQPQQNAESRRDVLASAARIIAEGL
Sequence of IMP-1 (P52699 19-246, looked up, species assumed): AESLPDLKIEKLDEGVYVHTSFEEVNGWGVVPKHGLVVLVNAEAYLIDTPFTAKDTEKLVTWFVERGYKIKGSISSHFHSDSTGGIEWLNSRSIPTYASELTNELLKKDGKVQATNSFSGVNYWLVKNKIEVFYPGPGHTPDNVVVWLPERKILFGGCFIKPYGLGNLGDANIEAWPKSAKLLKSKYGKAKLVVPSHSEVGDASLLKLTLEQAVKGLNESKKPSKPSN
Sequence of OXA-23 (Q9L4P2 18-273): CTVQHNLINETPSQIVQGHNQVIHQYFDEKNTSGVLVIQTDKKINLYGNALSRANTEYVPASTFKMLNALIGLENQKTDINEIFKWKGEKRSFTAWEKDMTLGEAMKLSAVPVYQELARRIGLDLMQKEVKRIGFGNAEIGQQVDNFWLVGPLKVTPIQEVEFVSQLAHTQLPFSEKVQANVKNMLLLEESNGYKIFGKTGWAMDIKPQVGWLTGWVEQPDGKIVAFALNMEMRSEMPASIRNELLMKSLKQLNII
Sequence of P99 (P05364 21-381): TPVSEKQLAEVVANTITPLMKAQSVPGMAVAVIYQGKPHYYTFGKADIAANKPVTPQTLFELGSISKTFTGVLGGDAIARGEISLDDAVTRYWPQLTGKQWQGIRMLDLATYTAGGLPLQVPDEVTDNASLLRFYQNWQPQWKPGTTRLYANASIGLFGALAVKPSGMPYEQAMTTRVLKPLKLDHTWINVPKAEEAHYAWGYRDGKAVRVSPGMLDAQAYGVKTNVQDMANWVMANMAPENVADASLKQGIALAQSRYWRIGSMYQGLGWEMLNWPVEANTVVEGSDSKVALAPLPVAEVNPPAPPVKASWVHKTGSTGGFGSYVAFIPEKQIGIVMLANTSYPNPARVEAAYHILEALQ
Sequence of Pa-AmpC (P24735 27-397): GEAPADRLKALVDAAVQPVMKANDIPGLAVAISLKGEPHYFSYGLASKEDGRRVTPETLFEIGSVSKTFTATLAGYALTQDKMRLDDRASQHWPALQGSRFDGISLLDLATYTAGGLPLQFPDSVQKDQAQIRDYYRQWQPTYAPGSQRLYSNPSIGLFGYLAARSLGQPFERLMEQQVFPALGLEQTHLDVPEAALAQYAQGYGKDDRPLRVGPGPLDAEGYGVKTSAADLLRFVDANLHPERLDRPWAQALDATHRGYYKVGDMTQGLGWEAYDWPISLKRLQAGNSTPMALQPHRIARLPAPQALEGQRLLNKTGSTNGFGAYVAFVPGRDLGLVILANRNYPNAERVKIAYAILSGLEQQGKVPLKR
Sequence of KPC-2 (Q9F663 25-293 limits assumed): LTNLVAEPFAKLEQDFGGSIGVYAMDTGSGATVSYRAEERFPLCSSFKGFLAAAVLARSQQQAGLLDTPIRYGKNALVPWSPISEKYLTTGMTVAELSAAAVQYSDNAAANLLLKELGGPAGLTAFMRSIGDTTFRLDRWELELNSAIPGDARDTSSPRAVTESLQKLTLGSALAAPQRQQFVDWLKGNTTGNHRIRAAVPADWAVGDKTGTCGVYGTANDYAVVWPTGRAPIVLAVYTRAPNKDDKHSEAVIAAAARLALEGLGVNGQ
Sequence of NDM-1 (C7C422 29-270, looked up, species assumed): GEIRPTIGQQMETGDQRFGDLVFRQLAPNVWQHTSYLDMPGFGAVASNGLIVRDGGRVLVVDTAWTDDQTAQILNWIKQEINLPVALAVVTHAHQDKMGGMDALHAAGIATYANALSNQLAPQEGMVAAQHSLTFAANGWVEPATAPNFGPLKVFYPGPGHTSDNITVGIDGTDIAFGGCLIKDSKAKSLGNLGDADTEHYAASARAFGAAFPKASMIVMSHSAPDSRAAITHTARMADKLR

Compound	Ki (KPC-2) [nM]	Ki (OXA-23) [nM]	Ki (NDM-1) [nM]	Ki (CTX-M-14) [nM]	Ki (OXA-48) [nM]	PAM1032/KPC-2 Biapenem MPC64 [1]	Ki (VIM-1) [nM]	Ki (Pa-AmpC; [4]) [nM]	Ki (P99) [nM]	Ki (IMP-1) [nM]	PAM1154/KPC-2 Biapenem MPC64 [2]	Average % of initial area ratio at t = 0 min [3] [%]	Average % of initial area ratio at t = 5 min [3] [%]	Average % of initial area ratio at t = 10 min [3] [%]	Average % of initial area ratio at t = 30 min [3] [%]	half-life at 1 μM [3] [min]	Ki (Pa-AmpC) [nM]
O=C(O)c1c(OCCF)ccc2c1OB(O)C1CC21 (stereo not drawn) [Compound 17, 5-(2-fluoroethoxy)-2,2-dihydroxy-1a,7b-dihydro-1H-cyclopropa[c][1,2]benzoxaborinine-4-carboxylic acid]	< 100	< 100	< 100	< 100	< 100	20	< 100	< 100	< 100	< 100	5						
O=C(OCOC(=O)C1CC1)c1c(F)ccc2c1OB(O)[C@@H]1C[C@H]21 [Compound 27]												100	91.4	80.4	25.0	14	
COc1ccc2c(c1C(=O)O)OB(O)C(F)=C2 [Compound 8, 3-Fluoro-2-hydroxy-7-methoxy-1,2-benzoxaborinine-8-carboxylic acid]	< 100	< 100		< 100	< 100	2.5	100 to 1000	< 100	< 100	> 1000	2.5						
O=C(O)[C@H]1/C(=C/CO)O[C@@H]2CC(=O)N21 [Clavulanic Acid, reference compound]	> 1000	> 1000	> 1000	< 100	> 1000		> 1000			> 1000							> 1000
O=C(O)c1nccc2c1OB(O)[C@@H]1C[C@H]21 [Compound 21, (1aR,7bS)-2-hydroxy-1a,7b-dihydro-1H-cyclopropa[6,7]oxaborinino[2,3-c]pyridine-4-carboxylic acid]	100 to 1000	< 100	100 to 1000	< 100	< 100	1.25	100 to 1000	> 1000	100 to 1000		1.25						
CC(=O)OCOC(=O)c1c(F)ccc2c1OB(O)[C@@H]1C[C@H]21 [Compound 28, Acetoxymethyl (1aR,7bS)-5-fluoro-2-hydroxy-1a,7b-dihydro-1H-cyclopropa[c][1,2]benzoxaborinine-4-carboxylate]												100	50.8	23.3	19.6	15	
COc1ccc2c(c1C(=O)O)OB(O)C=C2 [Compound 9, 2-Hydroxy-7-methoxy-1,2-benzoxaborinine-8-carboxylic acid]	< 100	< 100	> 1000		< 100	>10	> 1000	100 to 1000	< 100	> 1000	1.25						
O=C(O)c1nccc2c1OB(O)[C@H]1C[C@@H]21 [Compound 20, (1aS,7bR)-2-hydroxy-1a,7b-dihydro-1H-cyclopropa[6,7]oxaborinino[2,3-c]pyridine-4-carboxylic acid]	100 to 1000	100 to 1000	> 1000	< 100	< 100	5	> 1000	> 1000	> 1000		5						
C[C@]1(Cn2ccnn2)[C@H](C(=O)O)N2C(=O)C[C@H]2S1(=O)=O [Tazobactam, reference compound]	> 1000	100 to 1000	> 1000		100 to 1000		> 1000			> 1000							
COc1ccc2c(c1C(=O)O)OB(O)C1=C2COC1 [Compound 24, 4,4-dihydroxy-7-methoxy-1,3-dihydrofuro[3,4-c][1,2]benzoxaborinine-6-carboxylic acid]	< 100	< 100	100 to 1000	< 100	< 100		> 1000	< 100	< 100	> 1000							
O=C(O)c1c(F)ccc2c1OB(O)C1CC21 (stereo not drawn) [Compound 4, 5-Fluoro-2-hydroxy-1a,7b-dihydro-1H-cyclopropa[c][1,2]benzoxaborinine-4-carboxylic acid]	< 100	< 100		< 100	< 100	2.5	100 to 1000	< 100	< 100	> 1000	2.5						
CCCC(=O)OCOC(=O)c1c(F)ccc2c1OB(O)[C@@H]1C[C@H]21 [Compound 26, Butanoyloxymethyl (1aR,7bS)-5-fluoro-2-hydroxy-1a,7b-dihydro-1H-cyclopropa[c][1,2]benzoxaborinine-4-carboxylate]												100	73.4	55.9	11.9	10	

— patent publication US11999759B2, “Boronic acid derivatives and therapeutic uses thereof” (Qpex Biopharma, Inc., priority 2016, dated 2024)
